In patent publication US20080146540A1, “Methods of diagnosis and treatment for asthma, allergic rhinitis and other respiratory diseases based on haplotype association” (priority 2003, published 2008):

How the values were obtained:
[1] = system: sE-Selectin; assay: Phase II clinical study CEP-1347-201: sE-Selectin change from baseline; assay type: in vivo, human; conditions: for sE Selection Change from Baseline at Week 8, LS Mean: ANCOVA
Excerpt: Results from an ANCOVA (analysis of covariance) including treatment group as a factor and the baseline value as a covariate are presented in Table 24.

[2] = system: asthma patients; assay: Phase II clinical study CEP-1347-201: spirometry FEV/FVC; assay type: in vivo, human; conditions: patients with near normal lung function at baseline
Excerpt: The overall mean baseline percent predicted FEV1 (forced expiratory […] in 1 second) and FEV1 values for the study were 96% and 2.9 liters, respectively.

[3] = system: asthma patients; assay: Phase II clinical study CEP-1347-201: asthma exacerbations and airway remodeling; assay type: in vivo, human
Excerpt: However, given the near normal lung function of the population evaluated in this exploratory Phase 2 trial, positive trends can only be established with respect to the effects of CEP-1347 in asthma due to lack of statistical significance in certain aspects of the study. Furthermore, the trial patient numbers for at-risk haplotype carriers were not large enough to achieve significant power to adequately test the effect on these haplotype positive patients. The asthma patients enrolled into CEP-1347-201 were well treated with near normal lung function and any apparent lack of treatment effect could be attributed, in part, to deficiencies in study design as opposed to a lack of CEP-1347 effect.
The term “airway remodeling” in bronchial asthma refers to structural changes that occur in conjunction with, or because of, chronic airway inflammation. Airway remodeling results in alterations in the airway epithelium, lamina propria, and submucosa, leading to thickening of the airway wall. Another common attribute of asthmatic airways is eosinophilia. Eosinophils expressing the CCR3 chemokine receptor are drawn from pulmonary circulation primarily by Eotaxin/CCL11, which is overexpressed in asthmatic respiratory membrane epithelial cells, fibroblasts, and smooth muscle cells. […]

[4] = system: mice; conditions: cited from earlier work
[5] = system: asthma patients; assay: Phase II clinical study CEP-1347-201: methacholine challenge test (MCT; PC20 ANCOVA, survival analysis, model based EC50 analysis, AUC analysis); assay type: in vivo, human; conditions: for Percent of subjects with an increase in the AUC for the methacholine dose-response curve (AUCPost > AUCPre): after 8 weeks, placebo 33%; for median event-causing (20% drop in FEV1) methacholine concentration, PC20 survival analysis at week 8: placebo 3.0, log-rank p=0.02; for % Shift in EC50 (methacholine): model based analysis, vs placebo EC50; for Patients with Censored PC20 / Patients with PC20: week 8; for PC20 Change from Baseline at Week 8, LS Mean: ANCOVA, actual + imputed PC20
Protocol: A methacholine challenge test (MCT) was conducted at baseline and at the end of the 8-week treatment period in a subset of patients. The MCT test was not undertaken if, in the opinion of the investigator, MCT administration was contraindicated based on the patient's condition or the patient declined to participate. Patients that underwent a MCT were exposed to escalating doses of methacholine (methacholine administration typically leads to an acute decrease in lung function) and changes in lung function were measured by FEV1. The dose of methacholine was escalated until FEV1 decreased by 20% or the maximum MCT dose was reached. The dose of methacholine that produced a 20% decrease in FEV1 (PC20) was recorded. The change in FEV1 associated with each administration/dose of methacholine was recorded
The methacholine challenge test was conducted in a subset of patients at baseline and at the end of the 8-week treatment period.
In these cases the highest methacholine dose the patient received was assumed to be the PC20.
A 20% drop in FEV1 (PC20) was considered to be an event observation and the methacholine dose was treated as the “survival time” variable in the survival analysis. […] A Kaplan-Meier's product-limit estimate of the survival curve was generated; treatment effects were compared using a standard log-rank test; and baseline MCT information was ignored.
To make use of all methacholine-FEVI data a post hoc, model based analysis (i.e., nonlinear mixed effects model) was undertaken. The goal of the model based analysis was to estimate the magnitude of CEP-1347 effect on the patient's sensitivity to methacholine.
• the approach is more complex and less widely accepted compared to ANCOVA or survival analysis approaches • assumptions regarding the model structure are necessary • the suppressive effect of methacholine on lung functions was assumed to follow a classic inhibitory EMAX model, • the attenuating effect of CEP-1347 was assumed to shift an individual's EC50 or sensitivity to methacholine.
The model based analysis utilized 2202 FEV1 measurements following methacholine dosing. MCT data were available from 123 patients corresponding to approximately 17.9 observations per patient.
FEV1=E0*(1−EMAX*MET^γ/(EC50^γ+MET^γ))+ε(1) (Eq. 1)
Where, E0 was the FEV1 associated with a methacholine dose of 0, MET was the methacholine dose, EMAX was the maximum fractional suppression of FEV1 by methacholine, EC50 was the methacholine concentration at which 50% of maximal suppression was achieved, γ was the Hill coefficient, and ε (1) was the residual error term.
Inter-subject random effects were included on EMAX and EC50. […] Subsequently, the effect of CEP-1347 on the methacholine dose-response was added to the model. […] In other words, this model based approach asks the questions “Does CEP-1347 cause a patient to be less sensitive to methacholine (i.e., increase the individual patient's methacholine EC50)”. For the purposes of this model based analysis equation 2 describes the implementation of the CEP-1347 effect on the attenuation of the methacholine dose-response relationship:
Model selection was done on the basis of the log likelihood criterion (p<0.05) and visual inspection of goodness-of-fit plots. The difference in −2 times the log of the likelihood (−2LL) between a full and reduced model is asymptotically χ^2 distributed with degrees of freedom equal to the difference in number of parameters between the two models.

[6] = system: IL-8; assay: Phase II clinical study CEP-1347-201: sputum IL-8; assay type: in vivo, human; conditions: samples not collected in a systematic manner
[7] = biological target: MLK1 (Homo sapiens, UniProt P80192); conditions: MLK active site; cited from earlier work
Sequence of MLK1 (P80192 whole entry): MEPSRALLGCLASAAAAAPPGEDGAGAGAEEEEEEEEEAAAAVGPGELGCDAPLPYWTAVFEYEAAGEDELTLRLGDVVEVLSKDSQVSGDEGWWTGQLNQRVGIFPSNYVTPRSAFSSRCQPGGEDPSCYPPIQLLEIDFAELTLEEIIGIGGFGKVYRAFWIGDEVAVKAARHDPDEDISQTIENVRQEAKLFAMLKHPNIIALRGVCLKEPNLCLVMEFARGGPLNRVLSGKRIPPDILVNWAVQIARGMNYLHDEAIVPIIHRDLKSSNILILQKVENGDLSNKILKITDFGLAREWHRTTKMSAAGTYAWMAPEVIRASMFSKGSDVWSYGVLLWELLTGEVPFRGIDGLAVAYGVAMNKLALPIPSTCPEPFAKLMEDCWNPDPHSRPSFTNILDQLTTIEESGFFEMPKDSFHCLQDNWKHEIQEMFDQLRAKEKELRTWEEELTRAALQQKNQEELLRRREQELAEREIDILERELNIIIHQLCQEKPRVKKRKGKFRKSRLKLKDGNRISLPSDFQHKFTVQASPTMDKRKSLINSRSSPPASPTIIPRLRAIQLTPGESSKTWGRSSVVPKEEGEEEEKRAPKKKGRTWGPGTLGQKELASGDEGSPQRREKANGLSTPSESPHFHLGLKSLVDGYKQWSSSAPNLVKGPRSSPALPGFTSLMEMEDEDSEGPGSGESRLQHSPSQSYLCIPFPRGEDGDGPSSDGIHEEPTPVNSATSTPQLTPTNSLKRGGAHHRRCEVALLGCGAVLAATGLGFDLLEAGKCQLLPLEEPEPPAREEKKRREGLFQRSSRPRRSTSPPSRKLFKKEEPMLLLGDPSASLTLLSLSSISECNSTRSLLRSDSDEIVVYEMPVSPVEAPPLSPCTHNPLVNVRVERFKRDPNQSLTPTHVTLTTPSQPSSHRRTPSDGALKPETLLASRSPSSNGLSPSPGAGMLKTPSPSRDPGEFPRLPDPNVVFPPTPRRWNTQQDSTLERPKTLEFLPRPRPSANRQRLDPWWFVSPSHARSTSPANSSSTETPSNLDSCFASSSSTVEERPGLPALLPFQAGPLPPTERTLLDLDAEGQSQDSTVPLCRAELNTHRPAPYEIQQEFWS

**Q.** With `CCSCc1ccc2c(c1)c1c3c(c4c5cc(CSCC)ccc5n5c4c1n2C1CC(O)(C(=O)OC)C5(C)O1)CNC3=O` (stereo not drawn) [CEP-1347] as the compound, how does the “sE Selection Change from Baseline at Week 8, LS Mean” value (shortened to “sE Selection Change from Baseline”) ([1]; 10 mg BID, p 0.12) read?
**A.** −1.49

**Q.** What about the “sE Selection Change from Baseline” value ([1]; 25 mg BID, p 0.005) of the same compound?
**A.** −3.18

**Q.** What about the “sE Selection Change from Baseline” value ([1]; 50 mg BID, p 0.26) of the same compound?
**A.** −1.00

**Q.** What about the sE-Selection levels ([1]; CEP-1347 treated groups compared to placebo, p=0.02) of the same compound?
**A.** significantly lower

**Q.** What about the “FEV/FVC (ANCOVA)” value [2] of the same compound?
**A.** no clear treatment related trends or statistically significant changes

**Q.** And the asthma exacerbations ([3]; 50 mg BID group, positive trend only)?
**A.** reduction of exacerbations

**Q.** And the “progression of airway remodeling” value ([3]; in particular with the 25 mg BID dose (FIG. 13))?
**A.** Positive effects

**Q.** And the “protection from LPS-induced death” value [4]?
**A.** provides protection

**Q.** What about the “Percent of subjects with an increase in the AUC for the methacholine dose-response curve (AUCPost > AUCPre)” value (“Percent of subjects with an increase” for short) ([5]; 10 mg BID, Cochran-Mantel-Haenzel p = 0.075, logistic regression p = 0.039) of the same compound?
**A.** 55%

**Q.** And the “median event-causing (20% drop in FEV1) methacholine concentration, PC20 survival analysis at week 8” value ([5]; 10 mg BID, 95% confidence interval (0.85,+∞))?
**A.** 3.7 µg/mL

**Q.** What about the “% Shift in EC50 (methacholine)” value ([5]; 10 mg BID) of the same compound?
**A.** −40%

**Q.** And the “Patients with Censored PC20” value ([5]; 10 mg BID)?
**A.** 11 (39%) n (% of treatment group)

**Q.** What about the “Patients with PC20” value ([5]; 10 mg BID) of the same compound?
**A.** 17 (61%) n (% of treatment group)

**Q.** What about the “Percent of subjects with an increase” value ([5]; 25 mg BID) of the same compound?
**A.** 58%

**Q.** What about the “median event-causing (20% drop in FEV1) methacholine concentration, PC20 survival analysis at week 8” value ([5]; 25 mg BID, 95% confidence interval (1.87,+∞)) of the same compound?
**A.** 6.8 µg/mL

**Q.** What about the “% Shift in EC50 (methacholine)” value ([5]; 25 mg BID) of the same compound?
**A.** 21%

**Q.** What about the “Patients with Censored PC20” value ([5]; 25 mg BID) of the same compound?
**A.** 8 (47%) n (% of treatment group)

**Q.** What about the “Patients with PC20” value ([5]; 25 mg BID) of the same compound?
**A.** 9 (53%) n (% of treatment group)

**Q.** What about the “PC20 change from baseline at week 8 (ANCOVA)” value ([5]; 50 mg BID group) of the same compound?
**A.** seemingly worsened

**Q.** What about the “Percent of subjects with an increase” value ([5]; 50 mg BID) of the same compound?
**A.** 59%

**Q.** And the “median event-causing (20% drop in FEV1) methacholine concentration, PC20 survival analysis at week 8” value ([5]; 50 mg BID, 95% confidence interval (0.6, 3.0))?
**A.** 0.85 µg/mL

**Q.** And the “% Shift in EC50 (methacholine)” value ([5]; 50 mg BID)?
**A.** 43%

**Q.** What about the “increase of the methacholine EC50 (shift of methacholine-FEV1 dose-response curve to the right), model based analysis” value ([5]; 50 mg BID, nonlinear mixed effects model, effect size estimates imprecise) of the same compound?
**A.** 43%

**Q.** And the “Patients with Censored PC20” value ([5]; 50 mg BID)?
**A.** 3 (14%) n (% of treatment group)

**Q.** What about the “Patients with PC20” value ([5]; 50 mg BID) of the same compound?
**A.** 18 (86%) n (% of treatment group)

**Q.** And the “PC20 Change from Baseline at Week 8, LS Mean” value (shortened to “PC20 Change … LS Mean”) ([5]; CEP-1347 10 mg BID, p .66)?
**A.** 1.00

**Q.** And the “PC20 Change … LS Mean” value ([5]; CEP-1347 25 mg BID, p .77)?
**A.** 1.84

**Q.** What about the “PC20 Change … LS Mean” value ([5]; CEP-1347 50 mg BID, p .02) of the same compound?
**A.** −1.18

**Q.** And the “Summary of MCT analyses: ANCOVA, Results and Comments” value ([5]; PC20 at baseline and week 8)?
**A.** Not significant.

**Q.** And the “PC20 change from baseline at week 8 (ANCOVA)” value ([5]; all CEP-1347 groups vs placebo, PC20 imputed as highest methacholine dose where no 20% FEV1 decline)?
**A.** No clinical or statistically significant improvement

**Q.** What about the “effect on methacholine effects on FEV1, model based analysis” value ([5]; all doses, full vs reduced model p=0.02) of the same compound?
**A.** dose related attenuation

**Q.** And the “sputum IL-8 (ANCOVA)” value [6]?
**A.** no clear treatment related trends or statistically significant changes

**Q.** And the “kinetics of inhibition of MLK kinases, mode of action” value [7]?
**A.** competitive with the binding of adenosine triphosphate
